Test results: paper PMC11618052, “Design, synthesis, and antiproliferative activity of new 1,2,3-triazole/quinazoline-4-one hybrids as dual EGFR/BRAF^V600E inhibitors” (RSC Advances, 2024)

Experiments:
colon cancer (HT-29) = test: Antiproliferative MTT assay, HT-29; type: cell-based; conditions: Homo sapiens, HT-29 colon cancer cells, read-out: Antiproliferative activity IC50 ± SEM, HT-29
Description: (§1) The median inhibitory concentration (IC50) and GI50 (mean IC50) for the four cancer cell lines were calculated. Appendix A ^† contains more details. […]

breast cancer (MCF-7) = test: Antiproliferative MTT assay, MCF-7; type: cell-based; conditions: Homo sapiens, MCF7, MCF-7 breast cancer cells, read-out: Antiproliferative activity IC50 ± SEM, MCF-7
Description: as §1

lung cancer (A-549) = test: Antiproliferative MTT assay, A-549; type: cell-based; conditions: Homo sapiens, A549, A-549 lung cancer cells, read-out: Antiproliferative activity IC50 ± SEM, A-549
Description: as §1

[1] = test system: four human cancer cell lines (A-549, MCF-7, Panc-1, HT-29); test: Antiproliferative MTT assay, mean over the four cancer cell lines; type: cell-based; conditions: for GI50: mean IC50 over A-549, MCF-7, Panc-1, HT-29
Description: as §1

[2] = Cell viability MTT assay on MCF-10A normal cells; type: cell-based; conditions: human, MCF-10A normal mammary gland epithelial cells, MCF-10A cells, four days of incubation
Description: The viability of new compounds 8a–t was evaluated using the MCF-10A normal human mammary gland epithelial cell line. The cell viability of compounds 8a–t was examined using the MTT assay[36] after four days of incubation with MCF-10A cells. For more details, see Appendix A (ESI file). ^† […]
We evaluated the viability of new compounds 8a–t using the MCF-10A normal human mammary gland epithelial cell line. The cell viability of compounds 8a–t was examined using the MTT assay[36] after four days of incubation with MCF-10A cells.
4.2. Biological evaluation
4.2.1. Cytotoxic activity using MTT Assay and evaluation of IC 50
MTT assay was carried out to study the effect of compounds on mammary epithelial cells (MCF-10A). The medium in which cells were propagated contained Dulbecco's modified Eagle's medium (DMEM)/ Ham's F-12 medium (1:1) supplemented with epidermal growth factor (20 ng/mL), hydrocortisone (500 ng/mL), insulin (10 μg/mL), 2 mM glutamine and 10% foetal calf serum.
After every 2-3 days, the cells were passaged using trypsin ethylenediamine tetra acetic acid (EDTA). The cells were seeded at a density of 10^4 cells mL-1 in flat-bottomed culture plates containing 96 wells each. After 24 h, medium was removed from the plates and the compounds in (in 0.1% DMSO) were added (in 200 μL medium to yield a final concentration of 0.1% v/v) to the wells of plates. A single compound was designated with four wells followed by incubation of plates for 96h at 37°C. After incubation, medium was removed completely from the plates followed by addition of MTT (0.4 mg/mL in medium) to each well and subsequent incubation of plates for 3h. MTT (along with the medium) was removed and DMSO (150μL) was added to each well of the culture plates, followed by vortexing and subsequent measurement of absorbance (at 540 nm) using microplate reader. The data are shown as percentage inhibition of proliferation in comparison with controls containing 0.1% DMSO. […]

[3] = test system: pancreatic cancer (Panc-1); test: Antiproliferative MTT assay, Panc-1; type: cell-based; conditions: Homo sapiens, Panc-1 pancreatic cancer cells, read-out: Antiproliferative activity IC50 ± SEM, Panc-1
Description: as §1

BRAF^V600E = BRAF^V600E kinase inhibitory assay
Description: V600E mutant BRAF kinase assay was performed to investigate the activity of tested compounds against BRAF. Mouse full-length GST-tagged BRAFV600E (7.5 ng, Invitrogen, PV3849) was pre-incubated with drug (1 µL) and assay dilution buffer (4 µL) for 60 min at 25 °C. In assay dilution buffer, a solution (5 µL) containing MgCl2 (30 mM), ATP (200 µM), recombinant human full length (200 ng) and N-terminal His-tagged MEK1 (Invitrogen) was added to start the assay, subsequent to incubation for 25 min at 25 °C. The assay was stopped using 5X protein denaturing buffer (LDS) solution (5 µL). To further denature the protein, heat (70° C) was applied for 5 min.
10 µL of each reaction was loaded into the precast plates and electrophoresis was allowed to proceed. After completion of electrophoresis, the front part of the precast gel plate (holding hot ATP) was cut and afterwards cast-off. The dried gel was developed using a phosphor screen. A

EGFR = molecular target: T1, EGFR (Homo sapiens, UniProt P00533); test: EGFR-TK inhibitory assay; type: biochemical; conditions: read-out: EGFR inhibition IC50 ± SEM
T1 construct: 645–1186; His6 (N); made in house; host or cells: Sf-9 insect cells (baculovirus; pBlueBacHis2B / pFASTBacHTc)
Description: Sf-9 cells were infected for 72h for protein expression. […]
centrifugation for 20 min.
Histidine-linked proteins were first eluted with 250 and then […]
using wash buffer. Europium-tagged antiphosphotyrosine antibody (75 µL, 400 ng) was added to each well followed by incubation of 1h and then washing of the plates using buffer. The enhancement solution was added to each well and the signal was recorded at excitation and […]
The autophosphorylation percentage inhibition by compounds was calculated using the following equation: […]

T1 sequence (P00533 669-1210): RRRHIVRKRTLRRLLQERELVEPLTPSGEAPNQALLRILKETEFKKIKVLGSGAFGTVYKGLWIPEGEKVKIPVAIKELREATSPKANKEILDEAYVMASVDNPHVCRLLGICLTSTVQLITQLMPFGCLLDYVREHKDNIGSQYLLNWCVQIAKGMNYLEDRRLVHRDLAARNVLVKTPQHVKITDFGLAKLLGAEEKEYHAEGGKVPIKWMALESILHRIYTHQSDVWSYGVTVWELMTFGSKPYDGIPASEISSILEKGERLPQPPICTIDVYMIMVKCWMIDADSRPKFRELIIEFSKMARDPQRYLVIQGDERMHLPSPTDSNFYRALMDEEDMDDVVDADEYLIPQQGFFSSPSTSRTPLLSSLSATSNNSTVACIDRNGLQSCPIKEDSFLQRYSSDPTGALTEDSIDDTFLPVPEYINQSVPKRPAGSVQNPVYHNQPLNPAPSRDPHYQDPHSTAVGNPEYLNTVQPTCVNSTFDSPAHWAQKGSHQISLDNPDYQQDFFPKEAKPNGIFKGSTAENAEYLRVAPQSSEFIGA
Sequence of BRAF^V600E (P28028 whole entry V585E): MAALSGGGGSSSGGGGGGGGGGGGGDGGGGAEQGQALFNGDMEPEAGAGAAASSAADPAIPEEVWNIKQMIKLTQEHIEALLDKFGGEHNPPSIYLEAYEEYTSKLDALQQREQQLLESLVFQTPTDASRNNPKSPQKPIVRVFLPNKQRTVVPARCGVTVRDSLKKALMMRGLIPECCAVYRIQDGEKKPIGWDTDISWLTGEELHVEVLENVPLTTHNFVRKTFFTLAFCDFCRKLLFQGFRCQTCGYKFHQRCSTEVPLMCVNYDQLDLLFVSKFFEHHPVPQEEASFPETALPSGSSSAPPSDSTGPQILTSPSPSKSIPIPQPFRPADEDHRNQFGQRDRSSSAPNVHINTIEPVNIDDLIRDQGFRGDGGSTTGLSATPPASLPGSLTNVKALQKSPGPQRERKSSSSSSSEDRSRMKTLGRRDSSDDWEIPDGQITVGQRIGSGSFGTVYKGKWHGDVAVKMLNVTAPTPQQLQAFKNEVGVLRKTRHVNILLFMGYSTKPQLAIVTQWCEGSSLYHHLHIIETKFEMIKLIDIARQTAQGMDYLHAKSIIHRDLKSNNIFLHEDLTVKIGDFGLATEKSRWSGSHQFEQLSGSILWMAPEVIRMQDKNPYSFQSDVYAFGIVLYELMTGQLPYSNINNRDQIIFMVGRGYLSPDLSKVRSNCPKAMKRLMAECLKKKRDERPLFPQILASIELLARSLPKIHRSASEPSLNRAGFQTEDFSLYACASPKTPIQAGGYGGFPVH

IC50 (colon cancer (HT-29))	IC50 (breast cancer (MCF-7))	IC50 (lung cancer (A-549))	GI50 ([1]; Homo sapiens)	IC50 [3]	IC50 (BRAF^V600E)	IC50 (EGFR)	Fold less potent than compound 8g (GI50) ([1]; GI50 versus methoxy derivative 8g)	GI50 [1]	Structure (SMILES)	viability at 4 days, 50 µM [2]
45 ± 3 nM	39 ± 3 nM	42 ± 3 nM	43 nM	46 ± 3 nM					COc1ccc(-n2cc(CSc3nc4ccccc4c(=O)n3-c3cccc(C)c3)nn2)cc1 [Compound 8k, 2-(((1-(4-Methoxyphenyl)-1H-1,2,3-triazol-4-yl)methyl)thio)-3-(m-tolyl)quinazolin-4(3H)-one]	85%
87 ± 7 nM	80 ± 7 nM	84 ± 7 nM	85 nM	87 ± 7 nM					C=CCn1c(SCc2cn(-c3ccc(C)cc3)nn2)nc2ccccc2c1=O [Compound 8t, 2-(((1-(p-Tolyl)-1H-1,2,3-triazol-4-yl)methyl)thio)-3-allyl quinazolin-4(3H)-one]	90%
56 ± 4 nM	48 ± 4 nM	53 ± 4 nM	53 nM	56 ± 4 nM					Cc1ccc(-n2cc(CSc3nc4ccccc4c(=O)n3-c3ccccc3)nn2)cc1 [Compound 8d, 2-(((1-(p-Tolyl)-1H-1,2,3-triazol-4-yl)methyl)thio)-3-phenylquinazolin-4(3H)-one]	89%
74 ± 6 nM	63 ± 5 nM	69 ± 5 nM	70 nM	74 ± 6 nM					CCn1c(SCc2cn(-c3ccc(OC)cc3)nn2)nc2ccccc2c1=O [Compound 8o, 2-(((1-(4-Methoxyphenyl)-1H-1,2,3-triazol-4-yl)methyl)thio)-3-ethyl quinazolin-4(3H)-one]	89%
35 ± 2 nM	29 ± 2 nM	33 ± 2 nM	33 nM	36 ± 2 nM	64 ± 5 nM	83 ± 5 nM			Cc1ccc(-n2cc(CSc3nc4ccccc4c(=O)n3-c3cccc(C)c3)nn2)cc1 [Compound 8l, 2-(((1-(p-Tolyl)-1H-1,2,3-triazol-4-yl)methyl)thio)-3-(m-tolyl)quinazolin-4(3H)-one]	87%
44 ± 3 nM	36 ± 3 nM	40 ± 3 nM	41 nM	42 ± 3 nM					O=c1c2ccccc2nc(SCc2cn(-c3ccc(Cl)cc3)nn2)n1-c1ccccc1 [Compound 8b, 2-(((1-(4-Chlorophenyl)-1H-1,2,3-triazol-4-yl)methyl)thio)-3-phenyl quinazolin-4(3H)-one]	90%
92 ± 8 nM	85 ± 8 nM	88 ± 8 nM	89 nM	92 ± 8 nM			4		Cc1ccc(-n2c(SCc3cn(-c4ccccc4)nn3)nc3ccccc3c2=O)cc1 [Compound 8e, 2-(((1-Phenyl-1H-1,2,3-triazol-4-yl)methyl)thio)-3-(p-tolyl)quinazolin-4(3H)-one]	90%
84 ± 7 nM	75 ± 6 nM	79 ± 6 nM	80 nM	81 ± 7 nM					C=CCn1c(SCc2cn(-c3ccc(Cl)cc3)nn2)nc2ccccc2c1=O [Compound 8r, 2-(((1-(4-Chlorophenyl)-1H-1,2,3-triazol-4-yl)methyl)thio)-3-allyl quinazolin-4(3H)-one]	90%
74 ± 6 nM	68 ± 6 nM	72 ± 6 nM	72 nM	74 ± 6 nM					CCn1c(SCc2cn(-c3ccccc3)nn2)nc2ccccc2c1=O [Compound 8m, 2-(((1-Phenyl-1H-1,2,3-triazol-4-yl)methyl)thio)-3-ethyl quinazolin-4(3H)-one]	90%
30 ± 2 nM	26 ± 2 nM	29 ± 2 nM	33 nM	31 ± 2 nM	61 ± 5 nM	78 ± 5 nM		29 nM	Cc1cccc(-n2c(SCc3cn(-c4ccc(Cl)cc4)nn3)nc3ccccc3c2=O)c1 [Compound 8j, 2-(((1-(4-Chlorophenyl)-1H-1,2,3-triazol-4-yl)methyl)thio)-3-(m-tolyl)quinazolin-4(3H)-one]	87%
79 ± 6 nM	71 ± 6 nM	75 ± 6 nM	76 nM	78 ± 6 nM					CCn1c(SCc2cn(-c3ccc(Cl)cc3)nn2)nc2ccccc2c1=O [Compound 8n, 2-(((1-(4-Chlorophenyl)-1H-1,2,3-triazol-4-yl)methyl)thio)-3-ethyl quinazolin-4(3H)-one]	92%
68 ± 6 nM	59 ± 5 nM	65 ± 5 nM	65 nM	68 ± 6 nM					Cc1cccc(-n2c(SCc3cn(-c4ccccc4)nn3)nc3ccccc3c2=O)c1 [Compound 8i, 2-(((1-Phenyl-1H-1,2,3-triazol-4-yl)methyl)thio)-3-(m-tolyl)quinazolin-4(3H)-one]	90%
39 ± 3 nM	34 ± 3 nM	37 ± 3 nM	37 nM	38 ± 3 nM	69 ± 5 nM	89 ± 5 nM			Cc1ccc(-n2c(SCc3cn(-c4ccc(Cl)cc4)nn3)nc3ccccc3c2=O)cc1 [Compound 8f, 2-(((1-(4-Chlorophenyl)-1H-1,2,3-triazol-4-yl)methyl)thio)-3-(p-tolyl)quinazolin-4(3H)-one]	87%
96 ± 8 nM	89 ± 8 nM	93 ± 8 nM	94 nM	96 ± 8 nM					C=CCn1c(SCc2cn(-c3ccccc3)nn2)nc2ccccc2c1=O [Compound 8q, 2-(((1-Phenyl-1H-1,2,3-triazol-4-yl)methyl)thio)-3-allyl quinazolin-4(3H)-one]	87%
85 ± 7 nM	77 ± 7 nM	82 ± 7 nM	82 nM	84 ± 7 nM					CCn1c(SCc2cn(-c3ccc(C)cc3)nn2)nc2ccccc2c1=O [Compound 8p, 2-(((1-(p-Tolyl)-1H-1,2,3-triazol-4-yl)methyl)thio)-3-ethylquinazolin-4(3H)-one]	86%
64 ± 5 nM	56 ± 5 nM	61 ± 5 nM	61 nM	64 ± 5 nM					O=c1c2ccccc2nc(SCc2cn(-c3ccccc3)nn2)n1-c1ccccc1 [Compound 8a, 2-(((1-Phenyl-1H-1,2,3-triazol-4-yl)methyl)thio)-3-phenyl quinazolin-4(3H)-one]	89%
49 ± 3 nM	42 ± 3 nM	47 ± 3 nM	47 nM	49 ± 3 nM					COc1ccc(-n2cc(CSc3nc4ccccc4c(=O)n3-c3ccccc3)nn2)cc1 [Compound 8c, 2-(((1-(4-Methoxyphenyl)-1H-1,2,3-triazol-4-yl)methyl)thio)-3-phenylquinazolin-4(3H)-one]	86%
59 ± 5 nM	53 ± 4 nM	57 ± 5 nM	57 nM	59 ± 5 nM					C=CCn1c(SCc2cn(-c3ccc(OC)cc3)nn2)nc2ccccc2c1=O [Compound 8s, 2-(((1-(4-Methoxyphenyl)-1H-1,2,3-triazol-4-yl)methyl)thio)-3-allyl quinazolin-4(3H)-one]	91%

Structure (SMILES)	IC50 (colon cancer (HT-29))	IC50 (breast cancer (MCF-7))	IC50 (lung cancer (A-549))	GI50 ([1]; Homo sapiens)	IC50 [3]	IC50 (BRAF^V600E)	IC50 (EGFR)	Fold less potent than compound 8g (GI50) ([1]; GI50 versus methoxy derivative 8g)	GI50 [1]	viability at 4 days, 50 µM [2]
C#Cc1cccc(Nc2ncnc3cc(OCCOC)c(OCCOC)cc23)c1 [Erlotinib, reference compound]	30 ± 3 nM	40 ± 3 nM	30 ± 3 nM		30 ± 3 nM					
